Results reported in ChEMBL document CHEMBL3286376, “Design, synthesis and biological evaluation of hydroxy- or methoxy-substituted 5-benzylidene(thio) barbiturates as novel tyrosinase inhibitors” (Bioorg Med Chem, 2014).
The source made the active and inactive calls. No cut-off for these calls is given here.

What follows are compounds tested against T1, Tyrosinase (Agaricus bisporus) (UniProt O42713) (assay: Inhibition of mushroom tyrosinase diphenolase activity using L-DOPA as substrate assessed as formation of DOPAchrome at 100 uM preincubated for 10 mins followed by substrate addition measured for 1 min relative to control).
T1 sequence (whole entry): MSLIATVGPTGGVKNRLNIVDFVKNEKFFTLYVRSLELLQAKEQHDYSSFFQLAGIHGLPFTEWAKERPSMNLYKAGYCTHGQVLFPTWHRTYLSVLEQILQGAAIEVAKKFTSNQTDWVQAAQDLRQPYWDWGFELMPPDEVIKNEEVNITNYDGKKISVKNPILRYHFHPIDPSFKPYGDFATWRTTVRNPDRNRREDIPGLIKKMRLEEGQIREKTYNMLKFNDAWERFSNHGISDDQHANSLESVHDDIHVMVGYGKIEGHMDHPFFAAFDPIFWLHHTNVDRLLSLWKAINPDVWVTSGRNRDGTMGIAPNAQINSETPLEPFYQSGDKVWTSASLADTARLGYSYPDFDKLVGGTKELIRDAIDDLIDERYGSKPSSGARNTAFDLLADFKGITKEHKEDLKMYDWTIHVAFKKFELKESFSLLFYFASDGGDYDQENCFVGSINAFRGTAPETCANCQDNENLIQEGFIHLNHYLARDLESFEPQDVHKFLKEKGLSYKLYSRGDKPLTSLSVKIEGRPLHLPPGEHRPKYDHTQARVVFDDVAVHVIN
For `O=C1NC(=S)NC(=O)C1=Cc1cccc(O)c1`, the inhibition was under 20%. In the case of `COc1cc(C=C2C(=O)NC(=O)NC2=O)cc(OC)c1OC`, the inhibition is reported as under 20%. Work on `O=C1NC(=S)NC(=O)C1=Cc1ccccc1O` yielded an inhibition of under 20%. `COc1cc(C=C2C(=O)NC(=S)NC2=O)cc(OC)c1OC` gave an inhibition of under 20%. In the case of `O=C1NC(=O)C(=Cc2c(O)cc(O)cc2O)C(=O)N1`, the inhibition is reported as under 20%. With `O=C1NC(=O)C(=Cc2ccccc2O)C(=O)N1` the inhibition was under 20%. `COc1ccc(C=C2C(=O)NC(=S)NC2=O)cc1O` was tested, and the inhibition was under 20%. `O=C1NC(=O)C(=Cc2cccc(O)c2)C(=O)N1` showed an inhibition of under 20%. In the case of `COc1ccc(C=C2C(=O)NC(=O)NC2=O)cc1O`, the inhibition is reported as under 20%. `O=C1NC(=S)NC(=O)C1=Cc1ccc(O)cc1O` gave an inhibition of under 20%. `O=Cc1ccc(O)c(O)c1` gave an inhibition of under 20%. With `O=C1CC(=O)NC(=O)N1` the inhibition was under 20%. In the case of `O=C1CC(=O)NC(=S)N1`, the inhibition is reported as under 20%. Work on `O=C1NC(=S)NC(=O)C1=Cc1c(O)cc(O)cc1O` yielded an inhibition of under 20%. In the case of `O=C1NC(=O)C(=Cc2ccc(O)c(O)c2O)C(=O)N1`, the inhibition is reported as under 20%.

What follows are compounds tested against T1, Tyrosinase (Agaricus bisporus) (assay: Irreversible inhibition of mushroom tyrosinase diphenolase activity assessed as oxidation of L-DOPA at 5 to 10 uM).
`O=C1NC(=S)NC(=O)C1=Cc1ccc(O)c(O)c1` was tested, and the inhibition was “Active”.

What follows are compounds tested against T2, Tyrosinase (Agaricus bisporus, UniProt O42713).
T2 sequence (O42713 whole entry): T1 sequence (whole entry)
Description: Inhibition of mushroom tyrosinase diphenolase activity using L-DOPA as substrate assessed as formation of DOPAchrome preincubated for 10 mins followed by substrate addition measured for 1 min
Work on `COc1ccc(C=C2C(=O)NC(=O)NC2=O)cc1` yielded an IC50 of 100 µM. `O=C1NC(=S)NC(=O)C1=Cc1cc(O)c(O)c(O)c1` showed an IC50 of 7.14 µM. In the case of `COc1cc(C=C2C(=O)NC(=O)NC2=O)ccc1O`, the IC50 is reported as 5.5 µM. With `COc1cc(C=C2C(=O)NC(=S)NC2=O)ccc1O` the IC50 was 7.8 µM. `O=C1NC(=O)C(=Cc2cc(O)c(O)c(O)c2)C(=O)N1` was tested, and the IC50 was 5.51 µM. `O=C1NC(=S)NC(=O)C1=Cc1ccc(O)c(O)c1O` gave an IC50 of 95.8 µM. In the case of `O=C1NC(=O)C(=Cc2ccc(O)c(O)c2)C(=O)N1`, the IC50 is reported as 1.52 µM. For `COc1ccc(C=C2C(=O)NC(=S)NC2=O)cc1`, the IC50 was 70.1 µM. In the case of `O=C1NC(=S)NC(=O)C1=Cc1ccc(O)c(O)c1`, the IC50 is reported as 6.1 µM. `O=C1NC(=O)C(=Cc2ccc(O)cc2O)C(=O)N1` was tested, and the IC50 was 17.2 µM.

These compounds were tested against T1, Tyrosinase (Agaricus bisporus) (assay: Irreversible inhibition of mushroom tyrosinase diphenolase activity assessed as oxidation of L-DOPA at 1 to 2 uM).
For `O=C1NC(=O)C(=Cc2ccc(O)c(O)c2)C(=O)N1`, the inhibition was “Active”.
